Patent US20100303932A1 (priority 2009, published 2010)
“And” between values parts separate entries of the source, which are not always exact repeats. Equal values may be shown once.

Experiments:
[1] = system: EDL nerve muscle preparations; set-up: species or system mouse
[2] = system: mice injected with BoNT/A; conditions: mouse, in vivo
[3] = system: mice injected with BoNT/A; conditions: mouse, in vivo; remark: listed apart in the source
[4] = system: mice injected with BoNT/A
[5] = system: mice injected with BoNT/A; conditions: mouse, in vivo; remark: listed apart in the source
[6] = system: mice injected with BoNT/A; conditions: mouse, in vivo; remark: listed apart in the source
[7] = system: EDL nerve muscle preparations
Neuro 2a cells [8] = format: cell-based, mouse
TRPV1 = system: TRPV1; set-up: species or system mouse
Neuro 2a cells [9] = format: cell-based, mouse; remark: listed apart in the source
motor nerve terminals = system: motor nerve terminals; set-up: species or system mouse
[10] = mouse, in vivo

In the case of `Oc1cc2c(cc1O)CN(C(=S)NCCc1ccc(Cl)cc1)CCC2` [capsazepine], the “EPC amplitude or time course” value [1] was “no effect”, the “amplitude of endplate currents (EPCs)” value [1] was “equivalent to that observed after BoNT/A alone” and the “inhibitory effect of BoNT/A on mean EPC amplitude” value [1] was “the protective action of capsaicin was abolished”. For the same compound, the “toe spread 24 hours post-capsaicin” value [2] was “unable to spread toes”.
For `COc1cc(CNC(=O)CCCC/C=C/C(C)C)ccc1O` [capsaicin, trans 8-methyl-N-vanillyl-6-noneamide], the “cessation of grooming behavior after BoNT/A” value [3] was “reduced”, the “CMAP amplitude compared to BoNT/A alone treated mice” value ([4]; mouse, in vivo) was “significantly greater” and the “fold recovery of CMAP from week 1 to week 7” value ([4]; mouse, in vivo) was “approximately 18 fold”. For the same compound, the “muscle strength, body weight, CMAP amplitude and performance on the rotor rod” value ([4]; mouse, in vivo) was “normal”, the CMAP amplitude ([4]; n=4) was 4.6±0.92 mV and 6.7±1.24 mV and 7.6±1.12 mV and the “amplitude of endplate currents (EPCs)” value [1] was “reduced this action of BoNT/A”. The “endplate potentials (EPPs) in response to 70 Hz nerve stimulation” value [1] was “did not fail”, the “inhibitory effect of BoNT/A on mean EPC amplitude” value [1] was “reduced the inhibitory effect of BoNT/A” and the “Muscle Strength (%) ± SEM” value [5] was 100%. The motor strength [5] was “retained normal motor strength”, the “walk time on rotating rod” value [6] was “remained equivalent to non-treated controls” and the “force generation or amplitude of stimulus evoked endplate currents (EPC)” value [7] was “no effect”. The “mean nerve-evoked twitch tension” value ([7]; n=4) was 500 ± 100 mg, the “BoNT/A uptake into Neuro 2a cells” value (Neuro 2a cells [8]) was “reduced” and the “reduction of BoNT/A uptake into Neuro 2a cells by capsaicin” value (Neuro 2a cells [8]) was “prevented by removal of extracellular Ca^2+”. For the same compound, the “expression of TRPV1” value (TRPV1) was “did not affect”, the FM1-43 labeling (Neuro 2a cells [9]) was “equivalent to control” and the “protective effect of capsaicin on FM1-43 uptake” value (Neuro 2a cells [9]) was “did not occur”. For the same compound, the “exocytosis-induced uptake of BoNT/A into motor nerve terminals” value (motor nerve terminals) was “prevented”, the “reduction of BoNT/A uptake into motor nerve terminals by capsaicin” value (motor nerve terminals) was “prevented by removal of extracellular Ca^2+” and the “Toe spread reflex (TSR)” value [2] was “remained completely normal”. For the same compound, the “Toe spread reflex (TSR) at times later than 24 hours after BoNT/A” value [2] was “continued unaltered”, the “Toe spread reflex (TSR) within 24 hours” value [2] was “remained normal” and the “Body Weight (gram) ± SEM” value [10] was 32.62 ± 0.56 gram and 33.55 ± 0.51 gram and 38.39 ± 0.93 gram. For the same compound, the “loss of body mass after BoNT/A” value [10] was “reduced the loss of body mass” and the “recovery of body weight following BoNT/A” value [10] was “significantly enhanced recovery of body weight”.
